{"source": "patent US20040014215A1", "about": "“Synchronised arabidopsis cell suspensions and uses thereof” (priority 2000, published 2004)", "origin": "cited, not measured here", "key": {"[1]": {"tested_on": "Arabidopsis cell suspension cultures", "conditions": "low concentration of cycloheximide, release by washing; cited from earlier work"}, "cell cycle": {"tested_on": "cell cycle", "conditions": "phase of the cell cycle at which cells are arrested; cited from earlier work"}, "[2]": {"tested_on": "plant cells derived from a petunia protoplast culture", "conditions": "cited from earlier work"}, "tobacco BY-2 cell line": {"tested_on": "tobacco BY-2 cell line", "conditions": "BY-2 pre-synchronised with aphidicolin, then propyzamide for a few hours and removal; cited from earlier work"}, "[3]": {"tested_on": "purified CDK/cyclin complexes", "conditions": "cited from earlier work"}}, "data": [{"smiles": "C[C@@H]1C[C@@H]([C@H](O)CC2CC(=O)NC(=O)C2)C(=O)[C@@H](C)C1", "note": "[cycloheximide]", "values": [{"measurement": "peak mitotic index", "setting": "[1]", "value": 9, "unit": "%"}]}, {"smiles": "NC(Cn1ccc(=O)c(O)c1)C(=O)O", "note": "(stereo not drawn) [mimosine]", "values": [{"measurement": "cell cycle arrest", "setting": "cell cycle", "value": "early S"}, {"measurement": "cell cycle block", "setting": "[2]", "value": "reversible block during G1 and in early/mid S-phase"}]}, {"smiles": "NC(=O)NO", "note": "[hydroxyurea]", "values": [{"measurement": "cell cycle arrest", "setting": "cell cycle", "value": "G1/S phase boundary"}]}, {"smiles": "C#CC(C)(C)NC(=O)c1cc(Cl)cc(Cl)c1", "note": "[propyzamide]", "values": [{"measurement": "mitotic index", "setting": "tobacco BY-2 cell line", "value": "80-90%"}]}, {"smiles": "CC[C@H](CO)Nc1nc(NCc2ccccc2)c2ncn(C(C)C)c2n1", "note": "[roscovitine]", "values": [{"measurement": "histone H1 kinase activity", "setting": "[3]", "value": "inhibit the histone H1 kinase activity"}]}]}
